The text below walks through data of patent US7094801B2, “Chalcone derivatives and their use to treat diseases” (Atherogenics, Inc., priority 2001, dated 2006).

In one series the test system is Balb/C mice. The series is described as follows: Asthma Protocol (ovalbumin sensitized and challenged mice, bronchoaveolar lavage). In kind it is in vivo, mouse. The conditions noted are these: sc, daily dosing at 100 mg/kg from day 0–13, lavage fluid. As to the method: Balb/C mice (6–8 weeks old) are sensitized to ovalbumin (ova) (8 ug ova absorbed in 3.3 mg Alum inject) on days 0 and 5. On day 12, the mice were aerosol challenged with 0.5% ovalbumin dissolved in sterile saline for 1 hr in the AM, and then again in the PM (at least 4 hr apart). On day 14, the mice were anesthetized with ketamine/xylazine/acepromazine cocktail, exsanguinated, and then euthanized. Following blood collection, bronchoaveolar lavage was performed on each animal. Total cell counts were conducted on the lavage fluid, which was subsequently diluted with cell media 1:1. Slides of the lavage fluid were made by spinning the samples with a cytospin centrifuge. Slides were airdried and stained with x. Cell differentials of the lavage fluid were completed at the conclusion of the study. All compounds except Example 2 were well tolerated with no body weight loss throughout the course of the study. Statistical analysis involved ANOVA and Tukey-Kramer post hoc tests. Compounds were administered except where noted by subcutaneous injection once daily from day 0–13. The formulations used contained various mixtures of the following excipients (pharmasolve, cremophor RH 40, tween 80, PEG 300). See Biological Table 3

The subject of a further series is Male Lewis rats. The series is described as follows: Rheumatoid Arthritis Protocol (rat adjuvant arthritis, paw swelling). As to conditions: sq, bid. The class given is in vivo. As to the method: Male Lewis rats (150–175 g) from Charles River Laboratories were anesthetized on day 0 with 3–5% isoflurane anesthesia while the tail base was shaved and adjuvant mixture was injected. Fifty μL of adjuvant (10 mg/ml M. butyricum in mineral oil) was injected subcutaneously into two sites at the tail base. Paw swelling was monitored using a plethysmometer (UGO Basile), after shaving each leg to the level of the Achilles tendon to mark the level of immersion. A baseline paw measurement for both hindpaws was taken between d2-d5 and a second measurement was taken on day 7–8. Onset of paw swelling occurred rapidly between d9–11 and daily measurements were performed every weekday between d9 and day 15. Compounds of the invention and vehicles were dosed either prophylactically (d1–14), or therapeutically (d9–14) after swelling was confirmed. Solutions were injected subcutaneously or given orally by gavage 1–2 times per day. From day 0, rats were weighed every 2–3 days and overall health was monitored. Plasma drug levels, if desired, were measured in tail-vein derived blood samples taken on day 14. On day 15, blood samples were obtained by cardiac puncture, rats were euthanized with CO2, selected organs removed and both hindpaws were amputated and placed in 10% buffered formalin for histopathological analysis. See Biological Table 2.

The next series concerns VCAM-1. The series is described as follows: In Vitro VCAM-1 Assay (TNF-α stimulated HAEC or HPAEC, cell ELISA). In kind it is cell-based, human. The conditions noted are these: Homo sapiens, 16 h, TNF-α (1 ng/ml) stimulated HAEC or HPAEC, approximately 16 hours. Put shortly:
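Primary human aortic or pulmonary endothelial cells (below passage 9) stimulated with TNF-α (1 ng/ml) plus compound (four concentrations, ≤0.25% DMSO) for about 16 h. Surface VCAM-1 detected by cell ELISA (HRP/TMB, OD 450 nm). IC50 taken as the concentration giving 50% inhibition of the TNF-α-only response.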
Background: ELISA stands for enzyme-linked immunosorbent assay.

Structures are written as SMILES. pIC50: −log10 of the molar value. Marks after values point to notes of the source that are not given here.

Take `COc1cc(OCCN2CCOCC2)c(/C=C/C(=O)c2ccc(C(=O)O)cc2)cc1-c1cccs1.Cl` [Example 60, 4-{3E-[4-Methoxy-2-(2-morpholin-4-yl-ethoxy)-5-thiophen-2-yl-phenyl]-acryloyl}-benzoic acid, hydrochloride]: the melting point (as a rule, the temperature, or range, at which the solid turns liquid) is 255 °C (dec.). Besides, the % Inhibition (commonly the drop in the measured response relative to a control, in per cent) in the series on Balb/C mice is reported as 36%. In addition, the “% Inhibition” value with Male Lewis rats (75 mg/kg/day, dl–14) is recorded as 62* %. In the series with VCAM-1, the negative-log IC50 (pIC50) – broadly, −log10 of the IC50, conventionally taken in molar units – is above 6.00.
On to `COCCOCCOc1cc(OC)c(-c2cccs2)cc1/C=C/C(=O)c1ccc(C(=O)O)cc1` [Example 29, 4-(3E-{4-Methoxy-2-[2-(2-methoxyethoxy)ethoxy]-5-thiophen-2-yl-phenyl}-acryloyl)-benzoic Acid], for which the “% Inhibition” value in the series with Balb/C mice came to 24%; in the series on Male Lewis rats (60 mg/Kg/day, d1–14), 82%. Besides, in the series on VCAM-1, the pIC50 was above 6.00.
Take `COc1cc(OCC(CO)CO)c(/C=C/C(=O)c2ccc(S(N)(=O)=O)cc2)cc1-c1cccs1` [Example 86, 4-{3E-[2-(3-Hydroxy-2-hydroxymethyl-propoxy)-4-methoxy-5-thiophen-2-yl-phenyl]-acryloyl}-benzenesulfonamide]: the melting point fell in the range of 123 to 124 °C. Besides, in the series with Balb/C mice, the “% Inhibition” value is listed as 48%. Moreover, in the series on VCAM-1, the pIC50 is above 5.30.
Regarding `COc1cc(OC)c(-c2cc3ccccc3s2)cc1/C=C/C(=O)c1ccc(C(=O)O)cc1` [Example 3, 4-[3E-(5-Benzo[b]thien-2-yl-2,4-dimethoxyphenyl)-acryloyl]-benzoic acid], the “% Inhibition” value in the series with Balb/C mice is 79%; in the series with Male Lewis rats (60 mg/Kg/day, d1–14), 96%.
For the compound `COc1cc(OC)c(-c2cc3ccccc3n2C(=O)OC(C)(C)C)cc1/C=C/C(=O)c1ccc(C(=O)O)cc1` [Example 36, 2-{5-[3-(4-Carboxy-phenyl)-3-oxo-E-propenyl]-2,4-dimethoxy-phenyl}-indole-1-carboxylic acid tert-butyl ester], the melting point was 182 to 183 °C. Besides, the “% Inhibition” value with Balb/C mice worked out at 71%. Also, the pIC50 in the series with VCAM-1 is above 5.30.
The compound `COc1cc(OC)c(-c2cccs2)cc1/C=C/C(=O)c1ccc(C(=O)O)cc1` [Example 6, 4-[3E-(2,4-Dimethoxy-5-thiophen-2-yl-phenyl)-acryloyl]-benzoic acid] had a melting point of 213 to 216 °C. Further, the “% Inhibition” value in the series on Balb/C mice is on record as 81%. In addition, in the series with Male Lewis rats (60 mg/Kg/day, d1–14), the “% Inhibition” value amounted to 77%. This compound also gave a pIC50 in the series on VCAM-1 above 6.00.
`COc1cc(OC)c(-c2c(C)noc2C)cc1/C=C/C(=O)c1ccc(C(=O)O)cc1` [Example 33, 4-{3E-[5-(3,5-Dimethyl-isoxazol-4-yl)-2,4-dimethoxy-phenyl]-acryloyl}-benzoic acid] came in with a melting point above 260 °C. Moreover, the pIC50 in the series with VCAM-1 is above 5.30.
For `COc1cc(OCc2ccccn2)c(/C=C/C(=O)c2ccc(S(N)(=O)=O)cc2)cc1-c1cccs1` [Example 114, 4-{3E-[4-Methoxy-2-(pyridin-2-ylmethoxy)-5-thiophen-2-yl-phenyl]-acryloyl}-benzenesulfonamide], in that order: 188 to 189 °C and above 5.30.
On the same counts, the results for `COc1ccc(/C=C/C(=O)c2ccc(C(=O)O)cc2)c(OC)c1-c1cc2ccccc2s1` [Example 44, 4-[3E-(3-Benzo[b]thiophen-2-yl-2,4-dimethoxy-phenyl)-acryloyl]-benzoic acid] are 237 °C (dec.) and above 6.00.
For `COc1cc(OCCN2CCOCC2)c(/C=C/C(=O)c2ccc(C(N)=O)cc2)cc1-c1cccs1` [Example 92, 4-{3E-[4-Methoxy-2-(2-morpholin-4-yl-ethoxy)-5-thiophen-2-yl-phenyl]-acryloyl}-benzamide], in that order: 183 to 184 °C and above 6.00.
